Laboratory results as given in US5935945A, “Methods of treating or preventing cardiac arrhythmia” (Merck & Co., Inc., priority 1997, dated 1999).
Read-outs that look alike come from different tables or passages of the source.

How the values were obtained:
[1] = target: T1, IKr (rapidly activating delayed rectifier K^+ current) (Cavia porcellus, UniProt O08703); assay: Voltage-clamp measurement of IKr in guinea pig ventricular myocytes; assay type: cell-based; conditions: read-out: % Block (Guinea Pig Ventricle) IKr
T1 construct: Guinea pig ventricular myocytes were isolated; from tissue; host or cells: isolated guinea pig ventricular myocytes
T1 sequence (O08703 1-1294): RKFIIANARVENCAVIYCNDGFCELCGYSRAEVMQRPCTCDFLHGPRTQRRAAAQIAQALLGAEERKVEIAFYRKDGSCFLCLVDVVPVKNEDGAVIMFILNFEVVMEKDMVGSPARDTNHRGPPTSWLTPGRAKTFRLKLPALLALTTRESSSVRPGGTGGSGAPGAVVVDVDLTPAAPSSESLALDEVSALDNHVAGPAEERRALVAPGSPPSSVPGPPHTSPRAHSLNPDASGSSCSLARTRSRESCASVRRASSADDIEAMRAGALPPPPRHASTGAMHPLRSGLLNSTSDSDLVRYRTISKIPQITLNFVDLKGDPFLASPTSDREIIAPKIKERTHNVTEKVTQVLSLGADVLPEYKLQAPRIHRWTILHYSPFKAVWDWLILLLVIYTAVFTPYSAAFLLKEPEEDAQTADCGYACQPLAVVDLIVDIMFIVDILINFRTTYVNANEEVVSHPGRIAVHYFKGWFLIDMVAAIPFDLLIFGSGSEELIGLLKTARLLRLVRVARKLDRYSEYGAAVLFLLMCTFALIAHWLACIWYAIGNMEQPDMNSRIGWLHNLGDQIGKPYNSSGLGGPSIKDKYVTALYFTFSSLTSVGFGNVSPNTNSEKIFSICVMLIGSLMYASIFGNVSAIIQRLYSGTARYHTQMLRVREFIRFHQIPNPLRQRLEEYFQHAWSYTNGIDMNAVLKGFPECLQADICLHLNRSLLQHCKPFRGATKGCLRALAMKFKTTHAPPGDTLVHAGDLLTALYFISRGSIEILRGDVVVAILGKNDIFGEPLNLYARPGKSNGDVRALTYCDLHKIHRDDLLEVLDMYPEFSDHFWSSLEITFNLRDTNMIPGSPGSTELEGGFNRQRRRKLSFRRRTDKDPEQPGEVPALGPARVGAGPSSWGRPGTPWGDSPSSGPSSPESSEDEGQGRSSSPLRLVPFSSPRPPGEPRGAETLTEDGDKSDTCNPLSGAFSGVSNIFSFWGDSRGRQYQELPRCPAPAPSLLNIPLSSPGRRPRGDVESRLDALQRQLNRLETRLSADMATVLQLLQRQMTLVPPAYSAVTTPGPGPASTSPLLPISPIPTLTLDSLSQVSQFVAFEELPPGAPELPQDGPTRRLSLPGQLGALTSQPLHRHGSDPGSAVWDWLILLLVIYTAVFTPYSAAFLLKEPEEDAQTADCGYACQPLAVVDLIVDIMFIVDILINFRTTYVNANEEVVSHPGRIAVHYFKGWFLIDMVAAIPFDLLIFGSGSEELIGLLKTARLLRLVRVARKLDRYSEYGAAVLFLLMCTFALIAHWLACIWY
Experimental: Guinea pig ventricular myocytes were isolated using a modification of the procedure described by Mitra et al., Am. J. Physiol. 249:H1056-60 (1985). Excised hearts were perfused through the aorta (retrograde fashion) at a rate of 10 ml/min with oxygenated, warmed (37° C.) solutions described below. The heart was initially perfused for 7 minutes with a Tyrode's solution containing, (in mM): 132 NaCl, 4 KCl, 1.2 MgCl2, 10 HEPES, 5 glucose, pH=7.2. The heart was then perfused with the same nominally Ca^2+ -free solution containing 150 units/ml Type II collagenase (Worthington) and 0.5 units/ml Type XIV protease (Sigma) for 8 minutes. This perfusate was followed by a Tyrode's solution containing 0.2 mM CaCl2 (without enzymes) for 5 minutes. The digested ventricles were cut into small pieces and gently shaken until cells were visibly dispersed. The cells were stored at room temperature until use, within 8 hours after isolation.
The suction microelectrode technique described by Giles, W. R. and Shibata, E. F., "Voltage clamp of bull-frog cardiac pacemaker cells: a quantitative analysis of potassium currents", J. Physiol. 368:265-292 (1985) was used to voltage clamp the cells. Microelectrodes were made by using a two stage puller from square bore (1.0 mm o.d.) borosilicate capillary tubing. Pipettes were filled with 0.5 M K gluconate, 25 mM KCl and 5 mM K2 ATP. The electrodes had resistances of 3 to 7 M.OMEGA. when filled with this solution. After establishing whole-cell recording mode, negative pressure was maintained on the pipette using a 1 ml gas-tight syringe attached via air tight tubing to the suction port of the microelectrode holder. This minimized dialysis of the cell with the pipette solution.
To record K^+ currents, the cells were bathed in a Ca^2+ -free Tyrode's solution containing […]. […] To record Ca^2+ currents, the cells were bathed in Tyrode's solution containing 1.8 mM Ca^2+ without nisoldipine. The cell chamber was superfused with solutions at a rate of 1-2 ml/minute, while maintaining the temperature at 35±1° C. A List EPC-7 clamp amplifier was used to voltage clamp the isolated cells. […] (Sanguinetti M. C. and Jurkiewicz, N. K., "Two components of cardiac delayed rectifier K^+ current: Differential sensitivity to block by Class III antiarrhythmic agents", J. Gen Physiol 1990; 96:194-214.) Data was analyzed as % block from control membrane currents.
Nisoldipine was prepared as a 4 mM stock solution in polyethylene glycol 200. […] At the final concentrations used neither polyethylene glycol 200 nor dimethyl sulfoxide had any effect on any of the measured membrane currents.
Selectivity for block of cardiac K^+ channels, IK1, IKr, and IKs was determined as previously described in guinea pig ventricular myocytes (U.S. Pat. No. 5,428,031).

Experimental for atrial flutter: In this model, atrial flutter was induced following a Y-shaped surgical lesion comprised of an intercaval incision and a connecting incision across the right atrium. […] Bipolar electrodes also were sutured to the left ventricle for measurement of ventricular excitation threshold (VET) and ventricular relative (VRRP at 2× VET) and effective refractory periods (VERP at 10×VET). The following cardiac electrophysiologic parameters also were measured before test agent administration and at the termination of the study: AH interval, an index of AV nodal conduction; HV interval, an index of His-ventricular conduction time; P-A interval, an index of intra-atrial conduction; and H-EG interval, an index of ventricular conduction; and paced ECG QT interval. AV nodal functional refractory period (AVNFRP) and SA conduction time (SACT) were determined by the introduction of atrial extrastimuli during sinus rhythm, and the monitoring of ventricular response. Electrocardiographic intervals were determined during sinus rhythm; the rate-corrected ECG QTc interval was calculated as: QTc=QT (msec)/√R-R (sec).
Sustained atrial flutter was initiated in three dogs by electrical burst pacing (6-20 Hz) of the atria; atrial rates ranged from 440-530 cycles/min.

Compound | inhibition at 10 µM ([1]; @ 10 μM) | inhibition at 3 µM [1] | atrial effective refractory period, post-treatment (atrial flutter; at doses effective in terminating atrial arrhythmia, increase from 138±5 msec pretreatment) | effect on atrioventricular nodal or ventricular function (atrial flutter; dog, in vivo) | time to termination of atrial arrhythmia after test agent administration (atrial flutter; i.v. bolus 3 mg/kg (two dogs) or 10 mg/kg (third dog)) | atrial rate during atrial flutter (atrial flutter; i.v. bolus 3 mg/kg (two dogs) or 10 mg/kg (third dog), initial rates 440-530 cycles/min) | termination of atrial arrhythmia (atrial flutter; i.v. bolus 3 mg/kg, in two of three dogs) | termination of atrial arrhythmia (atrial flutter; i.v. bolus 10 mg/kg, in the third of three dogs)
COc1ccc(-n2nc(Sc3ccc(Cl)cc3)c(C)c(C#N)c2=O)cc1 [Compound A, 6-(4-Chlorophenylthio)-2-(4-methoxyphenyl)-5-methyl-3-oxo-2,3-dihydropyridazine-4-carbonitrile] | 29% | – | – | – | – | – | – | –
COc1ccc(-n2nc(Sc3ccc(C)cc3)c(C)c(C#N)c2=O)cc1 [Compound B] | – | 4.2% | – | – | – | – | – | –
Cc1cc(C)c(CP(=O)(c2ccccc2)c2ccccc2)c(-c2ccc(F)c(C)c2)c1 [Compound C, 2-(Diphenylphosphinylmethyl)-4'-fluoro-3,5,3'-trimethyl-biphenyl] | – | 11.1% | 153 ± 8 ms | no indication of effect on atrioventricular nodal or ventricular function | 10 to 120 s | slowed atrial rate | terminated the atrial arrhythmia | terminated the atrial arrhythmia
